Assay results: US9067922B2, “Chemical compounds” (Pfizer Limited, priority 2013, dated 2015)

Biological target: URAT-1 transporter (Homo sapiens (Human), UniProt Q96S37)
Test: URAT-1 inhibitor activity: [14C]-uric acid uptake in CHO-URAT1(L)GFP#8 (CHO#8) cells, scintillation proximity
Assay type: cell-based
Settings: not given
From the text: The nucleotide sequence for the long isoform of URAT1 (NM_144585) was C-terminally fused to that of enhanced green fluorescent protein (eGFP) (hereinafter referred to as URAT1(L)GFP). The combined sequence was codon-optimised and custom synthesized. The synthesized sequence was generated in pDONR221 Gateway entry vector (Invitrogen Life Technologies) prior to cloning in pLenti6.3/V5 Gateway destination vector (Invitrogen Life Technologies).
Lentiviral particles were generated according to ViraPower HiPerform expression system procedure (Invitrogen Life Technologies) and used to transduce CHO cells. […] The clonal pools were sorted using fluorescence-activated cell sorting (FACS) on the basis of GFP expression with the gating set at the top 50% of expression into single cells which were subsequently expanded to generate clonal lines. […] This cell line was used for all screening activities and is referred to as CHO-URAT1(L)GFP#8 or CHO#8.
The potency of the compounds of formula (I) as inhibitors of the URAT-1 transporter was determined as follows.
CHO#8 cells were cultured in cell line maintenance flasks in medium consisting of Dulbecco's modified Eagle medium (DMEM) with high glucose and sodium pyruvate (4.5 g of glucose per liter, Invitrogen Life Technologies), supplemented with heat-inactivated foetal bovine serum (FBC, 10% v/v), 1×NEAA (non-essential amino acids) and blasticidin (10 μg/ml). Cultures were grown in 175 cm^2 tissue culture flasks in a humidified incubator at approximately 37° C. in approximately 95% air/5% CO2. Near confluent CHO#8 cell cultures were harvested by trypsinisation, re-suspended in culture medium and the process was repeated once or twice weekly to provide sufficient cells for use.
Assay ready flasks were generated by the same method, except the cells were not cultured in blasticidin.
Assay ready frozen cells were generated by freezing 40,000,000 cells in 1 ml of FBS (without blasticidin) containing 10% DMSO per vial. One vial was sufficient for 5 assay plates. Each vial was thawed rapidly to 37° C., washed and re-suspended in pre-warmed culture medium for seeding onto assay plates.
CHO#8 cells were seeded onto Cytostar™ 96-well plates at a density of […]. The cells were cultured for 1 day at approximately 37° C. in a humidified incubator containing approximately 5% CO2 in air. After approximately 24 hours culture, cells were used for uptake experiments.
On the day of assay, culture medium was removed from the wells and the cells were washed once with 50 μL of chloride-containing buffer (136.7 mM NaCl, 5.36 mM KCl, 0.952 mM CaCl2, 0.441 mM KH2PO4, 0.812 mM MgSO4, 5.6 mM D-glucose, 0.383 mM Na2HPO4.2H2O, 10 mM HEPES, pH 7.4 with NaOH). The cells were pre-incubated with another 50 μL of chloride-containing buffer for one hour at approximately 37° C. in a humidified incubator containing approximately 5% CO2 in air.
Assay compound plates were prepared by diluting the compounds of formula (I) with chloride-free buffer (125 mM Na-gluconate, 4.8 mM K-gluconate, 1.3 mM Ca-gluconate, 1.2 mM KH2PO4, 1.2 mM MgSO4, 5.6 mM D-glucose, 25 mM HEPES, pH 7.4 with NaOH) in 100% DMSO to a final concentration of 1% DMSO. [^14C]-Uric Uric acid working stock was made by addition of radiolabeled compound to a final concentration of 120 nM in chloride-free buffer. In all wells, the final assay concentration of solvent (DMSO) was 0.25%; the final assay concentration of [^14C]-uric acid was 30 nM in chloride-free buffer and the final compound of formula (I) concentrations ranged from 0 to 10 μM.
After pre-incubation, cells were washed with 50 μL of chloride-free buffer and another 50 μL of chloride-free buffer was added.

Chain of URAT-1 transporter (Q96S37 other isoform, or with tags, fused parts or gaps): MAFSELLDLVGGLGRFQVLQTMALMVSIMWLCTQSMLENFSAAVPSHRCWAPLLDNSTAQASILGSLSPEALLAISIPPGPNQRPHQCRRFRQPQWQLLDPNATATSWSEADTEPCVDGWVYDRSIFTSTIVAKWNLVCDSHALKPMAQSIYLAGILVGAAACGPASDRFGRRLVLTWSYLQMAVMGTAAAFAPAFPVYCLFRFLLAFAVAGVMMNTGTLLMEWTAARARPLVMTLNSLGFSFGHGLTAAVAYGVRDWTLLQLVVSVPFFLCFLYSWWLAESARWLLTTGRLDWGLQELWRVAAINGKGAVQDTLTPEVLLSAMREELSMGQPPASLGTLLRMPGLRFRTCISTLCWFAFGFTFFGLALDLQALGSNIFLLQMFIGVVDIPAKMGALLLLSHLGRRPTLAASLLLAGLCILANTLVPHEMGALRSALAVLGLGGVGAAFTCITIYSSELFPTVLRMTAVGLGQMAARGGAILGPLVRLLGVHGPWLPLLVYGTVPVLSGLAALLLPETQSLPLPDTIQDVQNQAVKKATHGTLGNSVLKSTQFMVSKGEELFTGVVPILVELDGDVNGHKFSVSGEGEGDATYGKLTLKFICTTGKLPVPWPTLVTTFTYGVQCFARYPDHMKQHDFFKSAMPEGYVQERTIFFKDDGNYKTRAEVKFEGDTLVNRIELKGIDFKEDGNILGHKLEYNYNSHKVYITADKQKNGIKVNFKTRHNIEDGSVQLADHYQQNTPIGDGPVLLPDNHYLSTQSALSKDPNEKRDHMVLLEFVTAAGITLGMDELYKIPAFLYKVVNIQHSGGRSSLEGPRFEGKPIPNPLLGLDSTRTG

Which IC50 does the source give for `[2H]c1c(Oc2ccc(S(=O)(=O)Nc3ccc(F)cn3)c(F)c2)c([2H])c(C([2H])([2H])[2H])c(C#N)c1C([2H])([2H])[2H]` [Example 249] here?
The IC50 was 21 nM.

Same assay, conditions: inhibition of [14C]-uric acid (30 nM) uptake into CHO#8 cells; compound 0 to 10 μM; 4 parameter logistic fit

For `N#Cc1ccc(F)c(Oc2ccc(S(=O)(=O)Nc3ccc(F)cn3)cc2C#N)c1` [Example 69, 3-cyano-4-(5-cyano-2-fluorophenoxy)-N-(5-fluoropyridin-2-yl)benzenesulfonamide], which IC50 is on record?
The IC50 was 1310 nM.

`N#Cc1c(Cl)cccc1Oc1ccc(S(=O)(=O)Nc2cccnc2)cc1` [Example 219, 4-(3-chloro-2-cyanophenoxy)-N-(pyridin-3-yl)benzenesulfonamide] was tested. Which IC50 did it give?
The IC50 was over 10000 nM.

Which IC50 does the source give for `Cc1ccc(F)cc1Oc1ccc(S(=O)(=O)Nc2ccc(F)cn2)cc1C#N` [Example 21, 3-cyano-4-(5-fluoro-2-methylphenoxy)-N-(5-fluoropyridin-2-yl)benzenesulfonamide] here?
The IC50 was 84 nM.

How did the IC50 turn out when `N#Cc1cc(S(=O)(=O)Nc2ccc(F)cn2)ccc1Oc1cc(F)ccc1F` [Example 53, 3-cyano-4-(2,5-difluorophenoxy)-N-(5-fluoropyridin-2-yl)benzenesulfonamide] was run?
The IC50 was 191 nM.

With `COc1c(F)ccc(Oc2ccc(S(=O)(=O)Nc3ccc(F)cn3)cc2C#N)c1Cl` [Example 112, 4-(2-chloro-4-fluoro-3-methoxyphenoxy)-3-cyano-N-(5-fluoropyridin-2-yl)benzenesulfonamide] as the compound, how does the IC50 read?
The IC50 was 177 nM.

`N#Cc1cc(S(=O)(=O)Nc2ccc(F)cn2)ccc1Oc1ccc(C#N)c(C2CC2)c1` [Example 203, 3-cyano-4-(4-cyano-3-cyclopropylphenoxy)-N-(5-fluoropyridin-2-yl)benzenesulfonamide] was tested. Which IC50 did it give?
The IC50 was 37 nM.

With `N#Cc1cc(S(=O)(=O)Nc2ccc(F)cn2)ccc1Oc1c(Cl)cccc1C#N` [Example 73, 4-(2-chloro-6-cyanophenoxy)-3-cyano-N-(5-fluoropyridin-2-yl)benzenesulfonamide] as the compound, how does the IC50 read?
Its IC50 is 418 nM.

How did the IC50 turn out when `CC(C)Oc1ccc(F)cc1Oc1ccc(S(=O)(=O)Nc2ccc(F)cn2)cc1C#N` [Example 156, 3-cyano-4-[5-fluoro-2-(propan-2-yloxy)phenoxy]-N-(5-fluoropyridin-2-yl)benzenesulfonamide] was run?
The IC50 was over 10000 nM.

Which IC50 does the source give for `N#Cc1cc(Oc2ccc(S(=O)(=O)Nc3ccc(F)cn3)cc2C#N)ccc1Cl` [Example 60, 4-(4-chloro-3-cyanophenoxy)-3-cyano-N-(5-fluoropyridin-2-yl)benzenesulfonamide] here?
Its IC50 is 92 nM.

How did the IC50 turn out when `N#Cc1ccc(Oc2ccc(S(=O)(=O)Nc3ccc(F)cn3)cc2C#N)c(Cl)c1` [Example 30, 4-(2-chloro-4-cyanophenoxy)-3-cyano-N-(5-fluoropyridin-2-yl)benzenesulfonamide] was run?
The IC50 was 183 nM.

Which IC50 does the source give for `COc1ccc(Oc2ccc(S(=O)(=O)Nc3ccc(F)cn3)cc2C#N)cc1Cl` [Example 148, 4-(3-chloro-4-methoxyphenoxy)-3-cyano-N-(5-fluoropyridin-2-yl)benzenesulfonamide] here?
The IC50 was 53 nM.

For `CC(C)c1ncc(Oc2ccc(S(=O)(=O)Nc3ccc(F)cn3)cc2C#N)cc1Cl` [Example 117, 4-{[5-chloro-6-(propan-2-yl)pyridin-3-yl]oxy}-3-cyano-N-(5-fluoropyridin-2-yl)benzenesulfonamide], which IC50 is on record?
Its IC50 is over 10000 nM.

For `N#Cc1cc(S(=O)(=O)Nc2ccc(F)cn2)ccc1Oc1cccc(C2CC2)c1` [Example 118, 3-cyano-4-(3-cyclopropylphenoxy)-N-(5-fluoropyridin-2-yl)benzenesulfonamide], which IC50 is on record?
Its IC50 is over 10000 nM.

How did the IC50 turn out when `Cc1ncccc1Oc1ccc(S(=O)(=O)Nc2ccc(F)cn2)cc1C#N` [Example 184, 3-cyano-N-(5-fluoropyridin-2-yl)-4-[(2-methylpyridin-3-yl)oxy]benzenesulfonamide] was run?
Its IC50 is 385 nM.

With `CC(C)c1cc(Oc2ccc(S(=O)(=O)Nc3ccc(F)cn3)cc2C#N)ccc1Cl` [Example 164, 4-[4-chloro-3-(propan-2-yl)phenoxy]-3-cyano-N-(5-fluoropyridin-2-yl)benzenesulfonamide] as the compound, how does the IC50 read?
The IC50 was 6160 nM.

`CC(C)Oc1ccccc1Oc1ccc(S(=O)(=O)Nc2ccc(F)cn2)cc1C#N` [Example 207, 3-cyano-N-(5-fluoropyridin-2-yl)-4-[2-(propan-2-yloxy)phenoxy]benzenesulfonamide] was tested. Which IC50 did it give?
Its IC50 is over 10000 nM.

For `N#Cc1cc(S(=O)(=O)Nc2ccc(F)cn2)ccc1Oc1ccc(N)cc1` [Example 224, 4-(4-aminophenoxy)-3-cyano-N-(5-fluoropyridin-2-yl)benzenesulfonamide], which IC50 is on record?
The IC50 was over 10000 nM.

With `N#Cc1cc(S(=O)(=O)Nc2ccc(F)cn2)ccc1Oc1cccc(F)c1F` [Example 16, 3-cyano-4-(2,3-difluorophenoxy)-N-(5-fluoropyridin-2-yl)benzenesulfonamide] as the compound, how does the IC50 read?
The IC50 was 218 nM.

How did the IC50 turn out when `COc1ccc(F)c(Oc2ccc(S(=O)(=O)Nc3ccc(F)cn3)cc2C#N)c1` [Example 166, 3-cyano-4-(2-fluoro-5-methoxyphenoxy)-N-(5-fluoropyridin-2-yl)benzenesulfonamide] was run?
Its IC50 is 116 nM.

`N#Cc1cncc(Oc2ccc(S(=O)(=O)Nc3ccc(F)cn3)cc2C#N)c1` [Example 206, 3-cyano-4-[(5-cyanopyridin-3-yl)oxy]-N-(5-fluoropyridin-2-yl)benzenesulfonamide] was tested. Which IC50 did it give?
The IC50 was 1080 nM.

With `COc1ccc(Oc2ccc(S(=O)(=O)Nc3ccc(F)cn3)cc2C#N)cc1C#N` [Example 66, 3-cyano-4-(3-cyano-4-methoxyphenoxy)-N-(5-fluoropyridin-2-yl)benzenesulfonamide] as the compound, how does the IC50 read?
The IC50 was 135 nM.

How did the IC50 turn out when `CCOc1cc(C)ccc1Oc1ccc(S(=O)(=O)Nc2ccc(F)cn2)cc1C#N` [Example 138, 3-cyano-4-(2-ethoxy-4-methylphenoxy)-N-(5-fluoropyridin-2-yl)benzenesulfonamide] was run?
The IC50 was 9210 nM.

How did the IC50 turn out when `N#Cc1cc(S(=O)(=O)Nc2ccc(F)cn2)ccc1Oc1cccc(C(F)(F)F)c1` [Example 23, 3-cyano-N-(5-fluoropyridin-2-yl)-4-[3-(trifluoromethyl)phenoxy]benzenesulfonamide] was run?
Its IC50 is over 10000 nM.

`CCN(CC)c1cccc(Oc2ccc(S(=O)(=O)Nc3ccc(F)cn3)cc2C#N)c1` [Example 113, 3-cyano-4-[3-(diethylamino)phenoxy]-N-(5-fluoropyridin-2-yl)benzenesulfonamide] was tested. Which IC50 did it give?
Its IC50 is over 10000 nM.

How did the IC50 turn out when `Cc1ccc(Oc2ccc(S(=O)(=O)Nc3ccc(F)cn3)cc2C#N)c(Cl)c1C` [Example 178, 4-(2-chloro-3,4-dimethylphenoxy)-3-cyano-N-(5-fluoropyridin-2-yl)benzenesulfonamide] was run?
The IC50 was over 10000 nM.

With `N#Cc1ccc(Oc2ccc(S(=O)(=O)Nc3ccc(F)cn3)cc2F)cc1F` [Example 97, 4-(4-cyano-3-fluorophenoxy)-3-fluoro-N-(5-fluoropyridin-2-yl)benzenesulfonamide] as the compound, how does the IC50 read?
Its IC50 is over 1670 nM.

For `N#Cc1cc(S(=O)(=O)Nc2ccc(F)cn2)ccc1Oc1ccccc1Br` [Example 189, 4-(2-bromophenoxy)-3-cyano-N-(5-fluoropyridin-2-yl)benzenesulfonamide], which IC50 is on record?
The IC50 was 103 nM.

Which IC50 does the source give for `N#Cc1cc(S(=O)(=O)Nc2ccc(F)cn2)ccc1Oc1ccc(Br)cc1` [Example 163, 4-(4-bromophenoxy)-3-cyano-N-(5-fluoropyridin-2-yl)benzenesulfonamide] here?
Its IC50 is over 10000 nM.

Which IC50 does the source give for `COc1cc(Oc2ccc(S(=O)(=O)Nc3ccc(F)cn3)cc2C#N)ccc1C#N` [Example 76, 3-cyano-4-(4-cyano-3-methoxyphenoxy)-N-(5-fluoropyridin-2-yl)benzenesulfonamide] here?
The IC50 was 57 nM.

How did the IC50 turn out when `COc1ccc(Cl)cc1Oc1ccc(S(=O)(=O)Nc2ccc(F)cn2)cc1C#N` [Example 106, 4-(5-chloro-2-methoxyphenoxy)-3-cyano-N-(5-fluoropyridin-2-yl)benzenesulfonamide] was run?
The IC50 was over 10000 nM.

With `N#Cc1cc(S(=O)(=O)Nc2ccc(F)cn2)ccc1Oc1ccc(C(F)(F)F)nc1` [Example 196, 3-cyano-N-(5-fluoropyridin-2-yl)-4-{[6-(trifluoromethyl)pyridin-3-yl]oxy}benzenesulfonamide] as the compound, how does the IC50 read?
Its IC50 is over 10000 nM.
